Measured values as given in patent US11242537B2, “Method for improving sensitivity of plant to gibberellin inhibitor and use thereof” (CHINA AGRICULTURAL UNIVERSITY, priority 2017, dated 2022).

Key:
HRP::ga1-1 = assay: Effect of DPC on plant height of transgenic Arabidopsis thaliana (step 4.1), HRP::ga1-1; assay type: in vivo; settings: for Plant height reduction rate / Plant height: HRP::ga1-1; for Plant height reduction rate: relative to 0 mg/L DPC-treated plant; for Plant height: cultured 12 days
Description: (§1) In the following examples, the growth conditions of Arabidopsis thaliana are: culturing in a growth chamber with a photoperiod of 16 h light/8 h dark, a light intensity of 60 μmol/m^2/s, a humidity of 60%-70%, and a temperature of 22° C.
(§2) The experiment was repeated three times, and the specific steps of each repeated experiment were as follows:
(§3) Thirty homozygous line plants of the HRP::ga1-1 of step 2 were randomly selected and randomly divided into three groups, ten plants in each group. On the 33rd day of sowing (the day of sowing was recorded as the first day of sowing), the plants of these three groups were treated as follows, respectively one group was sprayed with water (i.e., 0 mg/L DPC solution) and cultured for 12 days to obtain untreated HRP::ga1-1; one group was sprayed with 30 mg/L DPC solution and cultured for 12 days to obtain 30 mg/L DPC-treated HRP::ga1-1; the last group was sprayed with 500 mg/L aqueous DPC solution and cultured for 12 days to obtain 500 mg/L DPC-treated HRP::ga1-1.
(§4) The plant heights of the above Arabidopsis thaliana before the treatment (FIG. 1) and after different treatments (FIG. 2 and Table 2) were measured.

ZmCPS::ga1-1 = assay: Effect of DPC on plant height (step 4.1), ZmCPS::ga1-1; assay type: in vivo, Arabidopsis thaliana; settings: for Plant height: 12 days; for Plant height reduction rate: relative to 0 mg/L
Description: as §1, §2, §3
(§5) According to the above method, the homozygous line plants of the HRP::ga1-1 were replaced with the homozygous line plants of the HRP::ga1-5, the homozygous line plants of the ZmCPS::ga1-1, the homozygous line plants of the ZmCPS::ga1-5, the homozygous line plants of the PsSuper1300::ga1-1 and the homozygous line plants of the PsSuper1300::ga1-5 respectively, the other steps were unchanged, and untreated HRP::ga1-5, 30 mg/L DPC-treated HRP::ga1-5, 500 mg/L DPC-treated HRP::ga1-5, untreated ZmCPS::ga1-1, 30 mg/L DPC-treated ZmCPS::ga1-1, 500 mg/L DPC-treated ZmCPS::ga1-1, untreated ZmCPS::ga1-5, 30 mg/L DPC-treated ZmCPS::ga1-5, 500 mg/L DPC-treated ZmCPS::ga1-5, untreated PsSuper1300::ga1-1, 30 mg/L DPC-treated PsSuper1300::ga1-1, 500 mg/L DPC-treated PsSuper1300::ga1-1, untreated PsSuper1300::ga1-5, 30 mg/L DPC-treated PsSuper1300::ga1-5 and 500 mg/L DPC-treated PsSuper1300::ga1-5 were obtained, respectively.
as §4

pSuper1300::ga1-1 = assay: Effect of DPC on plant height (step 4.1), empty vector pSuper1300::ga1-1; assay type: in vivo, Arabidopsis thaliana; settings: for Plant height: 12 days; for Plant height reduction rate: relative to 0 mg/L
Description: as §1, §2, §3, §5, §4

ga1-1 = assay: Effect of DPC on plant height (step 4.1), mutant ga1-1; assay type: in vivo, Arabidopsis thaliana; settings: for Plant height: 12 days; for Plant height reduction rate: relative to 0 mg/L
Description: as §1, §2
When the ga1-1 was cultured to the 33rd day of sowing (the day of sowing was recorded as the first day of sowing), 30 plants were taken and randomly divided into three groups, ten plants in each group and the plants of these three groups were treated as follows, respectively: one group was sprayed with 0 mg/L DPC solution and cultured for 12 days to obtain untreated ga1-1; one group was sprayed with 30 mg/L aqueous DPC solution and cultured for 12 days to obtain 30 mg/L DPC-treated ga1-1; the last group was sprayed with 500 mg/L DPC solution and cultured for 12 days to obtain 500 mg/L DPC-treated ga1-1.
as §4

HRP::ga1-5 = assay: Effect of DPC on plant height (step 4.1), HRP::ga1-5; assay type: in vivo, Arabidopsis thaliana; settings: for Plant height / Plant height reduction rate: HRP::ga1-5; for Plant height: 12 days; for Plant height reduction rate: relative to 0 mg/L
Description: as §1, §2, §3, §5, §4

ZmCPS::ga1-5 = assay: Effect of DPC on plant height (step 4.1), ZmCPS::ga1-5; assay type: in vivo, Arabidopsis thaliana; settings: for Plant height: 12 days
Description: as §1, §2, §3, §5, §4

C[N+]1(C)CCCCC1.[Cl-] [DPC, 1,1-dimethylpiperidinium chloride]
Plant height of HRP::ga1-1 as multiple of correspondingly treated ZmCPS::ga1-1 (HRP::ga1-1; 30 mg/L DPC): 0.68 times | Plant height of HRP::ga1-1 as multiple of correspondingly treated ga1-1 (HRP::ga1-1; 30 mg/L DPC): 2.71 times | Plant height reduction rate of HRP::ga1-1 as multiple of that of ga1-1 (HRP::ga1-1; 30 mg/L DPC): 2.49 times | Plant height of HRP::ga1-1 as multiple of correspondingly treated ZmCPS::ga1-1 (HRP::ga1-1; 500 mg/L DPC): 0.41 times | Plant height of HRP::ga1-1 as multiple of correspondingly treated ga1-1 (HRP::ga1-1; 500 mg/L DPC): 1.71 times | Plant height reduction rate of HRP::ga1-1 as multiple of that of ga1-1 (HRP::ga1-1; 500 mg/L DPC): 3.47 times | Plant height reduction rate (HRP::ga1-1; 30 mg/L DPC): 33.92% | Plant height reduction rate (HRP::ga1-1; 500 mg/L DPC): 60.18% | Plant height (HRP::ga1-1; sprayed with 30 mg/L DPC on 33rd day of sowing): 11.2 ± 0.24 cm | Plant height (HRP::ga1-1; sprayed with 500 mg/L DPC on 33rd day of sowing): 6.75 ± 0.38 cm | Plant height (ZmCPS::ga1-1; 30 mg/L DPC spray): 16.52 ± 0.31 cm | Plant height reduction rate (ZmCPS::ga1-1; 30 mg/L DPC): −0.12% | Plant height (ZmCPS::ga1-1; 500 mg/L DPC spray): 16.45 ± 0.21 cm | Plant height reduction rate (ZmCPS::ga1-1; 500 mg/L DPC): 0.30% | Effect of DPC on plant height (in words) (ZmCPS::ga1-1; 30 and 500 mg/L DPC): no effect | Plant height (pSuper1300::ga1-1; 30 mg/L DPC spray): 4.33 ± 0.27 cm | Plant height reduction rate (pSuper1300::ga1-1; 30 mg/L DPC): 4.84% | Plant height (pSuper1300::ga1-1; 500 mg/L DPC spray): 3.98 ± 0.17 cm | Plant height reduction rate (pSuper1300::ga1-1; 500 mg/L DPC): 12.53% | Plant height (ga1-1; 30 mg/L DPC spray): 4.13 ± 0.25 cm | Plant height reduction rate (ga1-1; 30 mg/L DPC): 13.60% | Plant height (ga1-1; 500 mg/L DPC spray): 3.95 ± 0.10 cm | Plant height reduction rate (ga1-1; 500 mg/L DPC): 17.36% | Plant height of HRP::ga1-5 as multiple of correspondingly treated ZmCPS::ga1-5 (HRP::ga1-5; 30 mg/L DPC): 0.64 times | Plant height of HRP::ga1-5 as multiple of correspondingly treated ga1-5 (HRP::ga1-5; 30 mg/L DPC): 1.65 times | Plant height reduction rate of HRP::ga1-5 as multiple of that of ga1-5 (HRP::ga1-5; 30 mg/L DPC): 4.68 times | Plant height of HRP::ga1-5 as multiple of correspondingly treated ZmCPS::ga1-5 (HRP::ga1-5; 500 mg/L DPC): 0.38 times | Plant height of HRP::ga1-5 as multiple of correspondingly treated ga1-5 (HRP::ga1-5; 500 mg/L DPC): 1.00 times | Plant height reduction rate of HRP::ga1-5 as multiple of that of ga1-5 (HRP::ga1-5; 500 mg/L DPC): 6.66 times | Plant height (HRP::ga1-5; 30 mg/L DPC spray): 10.80 ± 0.43 cm | Plant height reduction rate (HRP::ga1-5; 30 mg/L DPC): 31.99% | Plant height (HRP::ga1-5; 500 mg/L DPC spray): 6.41 ± 0.18 cm | Plant height reduction rate (HRP::ga1-5; 500 mg/L DPC): 59.63% | Plant height (ZmCPS::ga1-5; 30 mg/L DPC spray): 16.79 ± 0.13 cm | Plant height reduction rate (ZmCPS::ga1-5; 30 mg/L DPC, relative to 0 mg/L): 0.06% | Plant height (ZmCPS::ga1-5; 500 mg/L DPC spray): 16.66 ± 0.31 cm
